16 molecules from US8969325B2, “TRPV1 antagonists” (AbbVie Inc., priority 2011, dated 2015) can be followed below.

Experiment [1] addresses T1, human TRPV1 (Homo sapiens (Human), UniProt Q8NER1). Description: Capsaicin Activation Assay (intracellular Ca2+, FLIPR). To be noted: recombinant HEK293 cells expressing hTRPV1, 50 nM capsaicin. In kind it is cell-based. How it is done:
(Logan, Utah). Dulbecco's phosphate-buffered saline (D-PBS) (with 1 mg/mL glucose and 3.6 mg/l Na pyruvate, without phenol red), L-glutamine, hygromycin B, and Lipofectamine® were obtained from Life Technologies (Grand Island, N.Y.). G418 sulfate was obtained from Calbiochem-Novabiochem Corp. (San Diego, Calif.). […] (St. Louis, Mo.). […] The cDNA for human TRPV1 (hTRPV1) was isolated by reverse transcriptase-polymerase chain reaction (RT-PCR) from human small intestine poly A+ RNA supplied by Clontech (Palo Alto, Calif.) using primers designed surrounding the initiation and termination codons identical to the published sequences (Hayes et al. […] The resulting cDNA PCR products were subcloned into pCIneo mammalian expression vector (Promega) and fully sequenced using fluorescent dye-terminator reagents (Prism, PerkinElmer Applied Biosystems Division) and a PerkinElmer Applied Biosystems Model 373 DNA sequencer or Model 310 genetic analyzer. Expression plasmids encoding the hTRPV1 cDNA were transfected into HEK293 cells using Lipofectamine®. Forty-eight hours after transfection, the neomycin-resistant cells were selected with growth medium containing 800 μg/mL Geneticin (Life Technologies, formerly Gibco BRL). Surviving individual colonies were isolated and screened for TRPV1 activity. […] Compound stocks, 10 mM, were prepared in DMSO, and diluted serially across a 384-well plate using a Bravo BenchCel workstation (Agilent Technologies, Santa Clara, Calif.). […] On the day prior to the experiment, the recombinant HEK293 cells expressing human TRPV1 (hTRPV1) were removed from tissue culture flasks and plated in growth medium into black-walled clear-bottom 384-well Biocoat™ poly-D-lysine assay plates (BD Biosciences, Bedford, Mass.) using a Multidrop® dispenser (ThermoScientific, Waltham, Mass.). […] Molecular Devices, Sunnyvale, Calif.) was added to each well using the Multidrop® dispenser. […] Fluorescence readings were made at 1 to 5 second intervals over the course of the experimental run.

Experiment [2] concerns the target T1, human TRPV1. The experiment is described as follows: Acid Activation Assay (pH 5.0, intracellular Ca2+, FLIPR). Type of experiment: cell-based. Conditions: percentage of the maximal pH 5.0-induced response remaining; recombinant HEK293 hTRPV1 cells; maximum concentration tested 37.5 μM. How it is done: Dulbecco's modified Eagle's medium (DMEM) with 4.5 m g/mL D-glucose, fetal bovine serum, L-glutamine, and 2-morpholinoethanesulfonic acid (MES) were purchased from Sigma-Aldrich Co. (St. Louis, Mo.). Dulbecco's phosphate-buffered saline (DPBS) with Ca^2+, Mg^2+, and 1 mg/mL D-glucose (pH 7.4), Geneticin®, 0.25% trypsin-1 mM EDTA, and penicillin-streptomycin were purchased from Invitrogen Corp. (Carlsbad, Calif.). The FLIPR® Calcium 4 assay kit was purchased from Molecular Devices (Sunnyvale, Calif.).
The cDNA for human TRPV1 (hTRPV1) was isolated by reverse transcriptase-polymerase chain reaction (RT-PCR) from human small intestine poly A+ RNA supplied by Clontech (Palo Alto, Calif.) using primers designed surrounding the initiation and termination codons identical to the published sequences (Hayes et al. Pain 2000, 88, 205-215). The resulting cDNA PCR products were subcloned into pCIneo mammalian expression vector (Promega) and fully sequenced using fluorescent dye-terminator reagents (Prism, PerkinElmer Applied Biosystems Division) and a PerkinElmer Applied Biosystems Model 373 DNA sequencer or Model 310 genetic analyzer. Expression plasmids encoding the hTRPV1 cDNA were transfected into HEK293 cells using Lipofectamine®. Forty-eight hours after transfection, the neomycin-resistant cells were selected with growth medium containing 800 μg/mL Geneticin (Life Technologies, formerly Gibco BRL). Surviving individual colonies were isolated and screened for TRPV1 activity. Cells expressing recombinant TRPV1 were maintained at 37° C. in DMEM containing 4 mM L-glutamine, 300 μg/mL G418 (Calbiochem) and 10% fetal bovine serum under a humidified 5% CO2 atmosphere.
The functional activity of compounds at the TRPV1 receptor was determined by measurement of intracellular Ca^2+ levels ([Ca^2+]i) using the Fluorescence Imaging Plate Reader (FLIPR)TETRA®. All compounds were tested over a 12-point one-half-log concentration range with 37.5 μM being the maximum concentration tested. Compound stocks, 10 mM, were prepared in DMSO, and diluted serially across a 384-well plate using a Bravo BenchCel workstation (Agilent Technologies, Santa Clara, Calif.). On the day prior to the experiment, the recombinant HEK293 cells expressing human TRPV1 (hTRPV1) were removed from tissue culture flasks and plated in growth medium into black-walled clear-bottom 384-well Biocoat™ poly-D-lysine assay plates (BD Biosciences, Bedford, Mass.) using a Multidrop® dispenser (ThermoScientific, Waltham, Mass.). On the day of the experiment growth medium was removed, and the no-wash FLIPR® Calcium-4 dye (λEX=470-495 nm, λEM=515-575 nm) was added to each well using the Multidrop® dispenser. The plated cells were incubated for 90-120 min in the dark at 25° C. The test compounds dissolved in DMSO were then added to the plates using an Agilent Bravo workstation (Agilent Technologies Inc., Santa Clara, Calif.). Three minutes later, a pH 5.0 solution was added to each well. Reagents were delivered at a rate of 40 μL/sec, and the final assay volume was 80 μL. Acidic pH solutions were prepared by titration of DPBS/MES with 1 N HCl. The intensity of the fluorescence was captured and digitally transferred to an interfaced PC. The maximum peak measured for the concentration range tested was used to calculate the corresponding peak increase in fluorescence over baseline (relative fluorescence units) which was expressed as the percentage (max % remain) of the maximal pH 5.0-induced response.
Table 1 reports the percentage (max % remain) of the maximal pH 5.0-induced response measured for the compounds tested in the recombinant HEK293 cell assay. Most of the compounds tested inhibited calcium flux only partially following TRPV1 activation by the pH 5.0 solution.

Molecules are shown by their SMILES.

Broadly, the IC50 is the concentration needed to halve the response being measured.

T1 sequence (Q8NER1 whole entry): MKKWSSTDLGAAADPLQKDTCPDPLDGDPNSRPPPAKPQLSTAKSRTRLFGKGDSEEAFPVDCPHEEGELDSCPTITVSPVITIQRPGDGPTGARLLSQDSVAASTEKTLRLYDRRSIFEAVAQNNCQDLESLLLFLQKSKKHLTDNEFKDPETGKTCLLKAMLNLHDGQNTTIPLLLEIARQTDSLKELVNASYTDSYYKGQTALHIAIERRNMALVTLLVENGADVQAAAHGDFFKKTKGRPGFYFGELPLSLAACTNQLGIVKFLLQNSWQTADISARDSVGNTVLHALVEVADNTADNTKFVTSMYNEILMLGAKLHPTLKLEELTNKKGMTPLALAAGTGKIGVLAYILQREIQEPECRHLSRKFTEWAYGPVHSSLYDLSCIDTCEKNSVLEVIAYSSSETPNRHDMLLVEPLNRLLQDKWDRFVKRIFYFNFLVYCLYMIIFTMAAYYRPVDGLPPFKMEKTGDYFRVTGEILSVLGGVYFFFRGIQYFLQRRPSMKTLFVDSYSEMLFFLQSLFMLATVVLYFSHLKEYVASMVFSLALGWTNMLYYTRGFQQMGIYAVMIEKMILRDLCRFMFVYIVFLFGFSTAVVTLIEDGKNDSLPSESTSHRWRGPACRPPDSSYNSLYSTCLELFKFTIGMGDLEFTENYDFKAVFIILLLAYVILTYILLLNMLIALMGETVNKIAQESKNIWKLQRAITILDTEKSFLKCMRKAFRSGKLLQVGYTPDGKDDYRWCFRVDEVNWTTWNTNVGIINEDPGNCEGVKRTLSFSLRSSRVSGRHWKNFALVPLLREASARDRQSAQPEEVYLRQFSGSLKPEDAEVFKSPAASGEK

Consider `CCC1(CC)C[C@@H](NC(=O)Nc2ccc3c(c2)NC(=O)N(CCO)C3)c2ccccc2O1` [Example 45, 1-[(4R)-2,2-diethyl-3,4-dihydro-2H-chromen-4-yl]-3-[3-(2-hydroxyethyl)-2-oxo-1,2,3,4-tetrahydroquinazolin-7-yl]urea], for which the half-maximal inhibitory concentration (IC50) on human TRPV1 [1] came to 43 nM. Besides, the “human TRPV1 H^+ (max % remain)” value on human TRPV1 [2] is 4%.

Turning to `CCC1(CC)C[C@@H](NC(=O)Nc2ccc3c(c2)NC(=O)N(CCO)C3)c2ccc(C(F)(F)F)cc2O1` [Example 46, 1-[(4R)-2,2-diethyl-7-(trifluoromethyl)-3,4-dihydro-2H-chromen-4-yl]-3-[3-(2-hydroxyethyl)-2-oxo-1,2,3,4-tetrahydroquinazolin-7-yl]urea], the IC50 at human TRPV1 [1] is 367 nM. Also, at human TRPV1 [2], the “human TRPV1 H^+ (max % remain)” value turned out to be 0%.

For the molecule `CCC1(CC)C[C@@H](NC(=O)Nc2ccc3c(c2)NC(=O)N(CCO)C3)c2ccc(Cl)cc2O1` [Example 47, 1-[(4R)-7-chloro-2,2-diethyl-3,4-dihydro-2H-chromen-4-yl]-3-[3-(2-hydroxyethyl)-2-oxo-1,2,3,4-tetrahydroquinazolin-7-yl]urea], the IC50 on human TRPV1 [1] came out at 169 nM. Also, the “human TRPV1 H^+ (max % remain)” value at human TRPV1 [2] turned out to be 0%.

Take `CC1(C)C[C@@H](NC(=O)Nc2ccc3c(c2)NC(=O)N(CCO)C3)c2ccc(C(F)(F)F)cc2O1` [Example 48, 1-[(4R)-2,2-dimethyl-7-(trifluoromethyl)-3,4-dihydro-2H-chromen-4-yl]-3-[3-(2-hydroxyethyl)-2-oxo-1,2,3,4-tetrahydroquinazolin-7-yl]urea]: on human TRPV1 [1], the half-maximal inhibitory concentration (IC50) was found to be 21 nM. For the same molecule, the “human TRPV1 H^+ (max % remain)” value at human TRPV1 [2] turned out to be 1%.

On to `O=C(Nc1ccc2c(c1)NC(=O)N(CCO)C2)N[C@@H]1CC(CF)(CF)Oc2ccc(F)cc21` [Example 49, 1-[(4R)-6-fluoro-2,2-bis(fluoromethyl)-3,4-dihydro-2H-chromen-4-yl]-3-[3-(2-hydroxyethyl)-2-oxo-1,2,3,4-tetrahydroquinazolin-7-yl]urea], for which, at human TRPV1 [1], the half-inhibitory concentration (IC50) turned out to be 6100 nM. The “human TRPV1 H^+ (max % remain)” value on human TRPV1 [2] worked out at 8%.

Turning to `CCC1(CC)C[C@@H](NC(=O)Nc2ccc3c(c2)NC(=O)N(CCO)C3)c2cc(F)ccc2O1` [Example 50, 1-[(4R)-2,2-diethyl-6-fluoro-3,4-dihydro-2H-chromen-4-yl]-3-[3-(2-hydroxyethyl)-2-oxo-1,2,3,4-tetrahydroquinazolin-7-yl]urea], the IC50 on human TRPV1 [1] turned out to be 45 nM. Besides, the “human TRPV1 H^+ (max % remain)” value at human TRPV1 [2] came to 0%.

As for `CC1(C)C[C@@H](NC(=O)Nc2ccc3c(c2)NC(=O)N(CCO)C3)c2cc(F)ccc2O1` [Example 51, 1-[(4R)-6-fluoro-2,2-dimethyl-3,4-dihydro-2H-chromen-4-yl]-3-[3-(2-hydroxyethyl)-2-oxo-1,2,3,4-tetrahydroquinazolin-7-yl]urea], at human TRPV1 [1], the IC50 was 330 nM. For the same molecule, the “human TRPV1 H^+ (max % remain)” value on human TRPV1 [2] turned out to be 10%.

As to `O=C(Nc1ccc2c(c1)NC(=O)N(CCO)C2)N[C@@H]1CCOc2ccc(F)cc21` [Example 52, 1-[(4R)-6-fluoro-3,4-dihydro-2H-chromen-4-yl]-3-[3-(2-hydroxyethyl)-2-oxo-1,2,3,4-tetrahydroquinazolin-7-yl]urea], the half-inhibitory concentration (IC50) on human TRPV1 [1] worked out at 950 nM. Besides, the “human TRPV1 H^+ (max % remain)” value on human TRPV1 [2] is 32%.

Turning to `O=C(Nc1ccc2c(c1)NC(=O)N(CCO)C2)N[C@@H]1CCOc2c1cccc2C(F)(F)F` [Example 53, 1-[3-(2-hydroxyethyl)-2-oxo-1,2,3,4-tetrahydroquinazolin-7-yl]-3-[(4R)-8-(trifluoromethyl)-3,4-dihydro-2H-chromen-4-yl]urea], at human TRPV1 [1], the concentration for half-maximal inhibition (IC50) worked out at 1800 nM. Besides, the “human TRPV1 H^+ (max % remain)” value on human TRPV1 [2] was found to be 1%.

Turning to `O=C(Nc1ccc2c(c1)NC(=O)N(CCO)C2)N[C@@H]1CCOc2cc(C(F)(F)F)ccc21` [Example 54, 1-[3-(2-hydroxyethyl)-2-oxo-1,2,3,4-tetrahydroquinazolin-7-yl]-3-[(4R)-7-(trifluoromethyl)-3,4-dihydro-2H-chromen-4-yl]urea], the IC50 on human TRPV1 [1] was determined as 260 nM. Moreover, on human TRPV1 [2], the “human TRPV1 H^+ (max % remain)” value is reported as 1%.

With `O=C(Nc1ccc2c(c1)NC(=O)N(CCO)C2)N[C@@H]1CCc2cc(F)ccc21` [Example 55, 1-[(1R)-5-fluoro-2,3-dihydro-1H-inden-1-yl]-3-[3-(2-hydroxyethyl)-2-oxo-1,2,3,4-tetrahydroquinazolin-7-yl]urea], the IC50 at human TRPV1 [1] came to 7300 nM. Also, the “human TRPV1 H^+ (max % remain)” value at human TRPV1 [2] is 36%.

For `O=C(Nc1ccc2c(c1)NC(=O)N(CCO)C2)N[C@H]1CC2(CCC2)Oc2ccc(F)cc21` [Example 56, 1-[(4S)-6-fluoro-3,4-dihydrospiro[chromene-2,1′-cyclobutan]-4-yl]-3-[3-(2-hydroxyethyl)-2-oxo-1,2,3,4-tetrahydroquinazolin-7-yl]urea], the half-inhibitory concentration (IC50) at human TRPV1 [1] is 700 nM. Also, the “human TRPV1 H^+ (max % remain)” value on human TRPV1 [2] worked out at 67%.

Regarding `CC1(C)C[C@H](NC(=O)Nc2ccc3c(c2)NC(=O)N(CCO)C3)c2cc(F)ccc2O1` [Example 57, 1-[(4S)-6-fluoro-2,2-dimethyl-3,4-dihydro-2H-chromen-4-yl]-3-[3-(2-hydroxyethyl)-2-oxo-1,2,3,4-tetrahydroquinazolin-7-yl]urea], the half-maximal inhibitory concentration (IC50) on human TRPV1 [1] is 380 nM. For the same molecule, on human TRPV1 [2], the “human TRPV1 H^+ (max % remain)” value amounted to 43%.

Regarding `C[C@@]1(CF)C[C@@H](NC(=O)Nc2ccc3c(c2)NC(=O)N(CCO)C3)c2ccc(C(F)(F)F)cc2O1` [Example 58, 1-[(2S,4R)-2-(fluoromethyl)-2-methyl-7-(trifluoromethyl)-3,4-dihydro-2H-chromen-4-yl]-3-[3-(2-hydroxyethyl)-2-oxo-1,2,3,4-tetrahydroquinazolin-7-yl]urea], on human TRPV1 [1], the IC50 amounted to 63 nM. Besides, the “human TRPV1 H^+ (max % remain)” value at human TRPV1 [2] is 2%.

With `C[C@@]1(CF)C[C@@H](NC(=O)Nc2ccc3c(c2)NC(=O)N(CCO)C3)c2ccc(Cl)cc2O1` [Example 59, 1-[(2S,4R)-7-chloro-2-(fluoromethyl)-2-methyl-3,4-dihydro-2H-chromen-4-yl]-3-[3-(2-hydroxyethyl)-2-oxo-1,2,3,4-tetrahydroquinazolin-7-yl]urea], the IC50 on human TRPV1 [1] is 1500 nM. Further, the “human TRPV1 H^+ (max % remain)” value on human TRPV1 [2] is 2%.

As to `C[C@]1(C(F)F)C[C@@H](NC(=O)Nc2ccc3c(c2)NC(=O)N(CCO)C3)c2ccccc2O1` [Example 60, 1-[(2R,4R)-2-(difluoromethyl)-2-methyl-3,4-dihydro-2H-chromen-4-yl]-3-[3-(2-hydroxyethyl)-2-oxo-1,2,3,4-tetrahydroquinazolin-7-yl]urea], on human TRPV1 [1], the IC50 stood at 1300 nM. In addition, the “human TRPV1 H^+ (max % remain)” value on human TRPV1 [2] was determined as 9%.
